Assay results as given in ChEMBL document CHEMBL1201862, “PubChem BioAssay data set” (2004).
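A five-concentration, 48-hour dose response in 96-well plates underlies each endpoint, interpolated linearly between surrounding concentrations. At the GI50, growth is halved.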 Active and inactive are the calls of the source. Rule as the data show it: active = GI50 up to about 1.1 µM and inactive = higher.

Experiments:
Assay in all cases: NCI-60 cell line screen, 48 h
[1] = tested on: 786-0
[2] = tested on: A498
[3] = tested on: A549
[4] = tested on: ACHN
[5] = tested on: BT-549
[6] = tested on: CAKI-1
[7] = tested on: CCRF-CEM
[8] = tested on: COLO 205
[9] = tested on: DU-145
[10] = tested on: EKVX
[11] = tested on: HCC 2998
[12] = tested on: HCT-116
[13] = tested on: HCT-15
[14] = tested on: HL-60
[15] = tested on: HOP-62
[16] = tested on: HOP-92
[17] = tested on: HT-29
[18] = tested on: Hs-578T
[19] = tested on: IGROV-1
[20] = tested on: K562
[21] = tested on: KM12
[22] = tested on: LOX IMVI
[23] = tested on: M14
[24] = tested on: MCF7
[25] = tested on: MDA-MB-231
[26] = tested on: MDA-MB-435
[27] = tested on: MDA-N
[28] = tested on: MOLT-4
[29] = tested on: Malme-3M
[30] = tested on: NCI-H226
[31] = tested on: NCI-H23
[32] = tested on: NCI-H460
[33] = tested on: NCI-H522
[34] = tested on: NCI/ADR-RES
[35] = tested on: OVCAR-3
[36] = tested on: OVCAR-4
[37] = tested on: OVCAR-5
[38] = tested on: OVCAR-8
[39] = tested on: PC-3
[40] = tested on: RPMI-8226
[41] = tested on: RXF 393
[42] = tested on: SF-268
[43] = tested on: SF-295
[44] = tested on: SF-539
[45] = tested on: SK-MEL-28
[46] = tested on: SK-MEL-2
[47] = tested on: SK-MEL-5
[48] = tested on: SK-OV-3
[49] = tested on: SN12C
[50] = tested on: SNB-19
[51] = tested on: SNB-75
[52] = tested on: SR
[53] = tested on: SW-620
[54] = tested on: T47D
[55] = tested on: TK-10
[56] = tested on: U-251
[57] = tested on: UACC-257
[58] = tested on: UACC-62
[59] = tested on: UO-31

## CC1=C(C)C(=O)C(C2=C(C3=CC(=O)C(C)=C(C)C3=O)C(=O)c3ccccc3C2=O)=CC1=O
[1]
  GI50: 1.88 µM (inactive)
[2]
  GI50: 8.04 µM (inactive)
[3]
  GI50: 5.21 µM (inactive)
[4]
  GI50: 2.31 µM (inactive)
[5]
  GI50: 2.57 µM (inactive)
[6]
  GI50: 2.25 µM (inactive)
[7]
  GI50: 0.619 µM (active)
[8]
  GI50: 0.863 µM (active)
[9]
  GI50: 2.95 µM (inactive)
[10]
  GI50: 2.12 µM (inactive)
[11]
  GI50: 4.66 µM (inactive)
[12]
  GI50: 2.14 µM (inactive)
[13]
  GI50: 2.12 µM
[14]
  GI50: 0.255 µM (active)
[15]
  GI50: 14.7 µM (inactive)
[16]
  GI50: 2.55 µM (inactive)
[17]
  GI50: 2.2 µM (inactive)
[18]
  GI50: 5.93 µM (inactive)
[19]
  GI50: 2.48 µM (inactive)
[20]
  GI50: 2.77 µM (inactive)
[21]
  GI50: 3.33 µM (inactive)
[22]
  GI50: 2.41 µM (inactive)
[23]
  GI50: 1.82 µM (inactive)
[24]
  GI50: 1.71 µM (inactive)
[25]
  GI50: 2.37 µM (inactive)
[26]
  GI50: 1.5 µM (inactive)
[27]
  GI50: 1.91 µM (inactive)
[28]
  GI50: 1.41 µM (inactive)
[29]
  GI50: 1.12 µM (active)
[30]
  GI50: 6.14 µM (inactive)
[31]
  GI50: 2.79 µM (inactive)
[32]
  GI50: 14.2 µM (inactive)
[33]
  GI50: 1.88 µM (inactive)
[34]
  GI50: 10.4 µM (inactive)
[35]
  GI50: 2.68 µM (inactive)
[36]
  GI50: 1.7 µM (inactive)
[37]
  GI50: 13 µM (inactive)
[38]
  GI50: 2.38 µM (inactive)
[39]
  GI50: 2.61 µM (inactive)
[40]
  GI50: 1.3 µM (inactive)
[41]
  GI50: 1.71 µM (inactive)
[42]
  GI50: 3.26 µM (inactive)
[43]
  GI50: 12.1 µM (inactive)
[44]
  GI50: 2.36 µM (inactive)
[45]
  GI50: 2.3 µM (inactive)
[46]
  GI50: 2.32 µM (inactive)
[47]
  GI50: 4.53 µM (inactive)
[48]
  GI50: 16.5 µM (inactive)
[49]
  GI50: 1.85 µM (inactive)
[50]
  GI50: 11.2 µM (inactive)
[51]
  GI50: 9.79 µM (inactive)
[52]
  GI50: 1.47 µM (inactive)
[53]
  GI50: 1.82 µM (inactive)
[54]
  GI50: 2.96 µM (inactive)
[55]
  GI50: 6.35 µM (inactive)
[56]
  GI50: 3.62 µM (inactive)
[57]
  GI50: 1.99 µM (inactive)
[58]
  GI50: 2.51 µM (inactive)
[59]
  GI50: 1.93 µM (inactive)

## O=[N+]([O-])c1cc(/C=N/C23CC4CC(CC(C4)C2)C3)ccc1Cl
[1]
  GI50: 19.8 µM (inactive)
[2]
  GI50: > 100 µM (inactive)
[3]
  GI50: > 100 µM (inactive)
[4]
  GI50: 24 µM (inactive)
[5]
  GI50: 21 µM (inactive)
[6]
  GI50: 6.71 µM (inactive)
[7]
  GI50: 2.82 µM (inactive)
[8]
  GI50: 42.6 µM (inactive)
[9]
  GI50: 27.8 µM (inactive)
[10]
  GI50: 29.9 µM (inactive)
[11]
  GI50: 30.5 µM (inactive)
[12]
  GI50: 3.94 µM (inactive)
[13]
  GI50: 22.6 µM
[14]
  GI50: 3.03 µM (inactive)
[15]
  GI50: 4 µM (inactive)
[16]
  GI50: 34.5 µM (inactive)
[17]
  GI50: 19.1 µM (inactive)
[18]
  GI50: 38.8 µM (inactive)
[19]
  GI50: 23.6 µM (inactive)
[20]
  GI50: 4.42 µM (inactive)
[21]
  GI50: 17.1 µM (inactive)
[22]
  GI50: 19 µM (inactive)
[23]
  GI50: 12.3 µM (inactive)
[24]
  GI50: 9.02 µM (inactive)
[25]
  GI50: 11.7 µM (inactive)
[26]
  GI50: 16.5 µM (inactive)
[27]
  GI50: 8.02 µM (inactive)
[28]
  GI50: 8.73 µM (inactive)
[29]
  GI50: 20.9 µM (inactive)
[30]
  GI50: 51.1 µM (inactive)
[31]
  GI50: 19.1 µM (inactive)
[32]
  GI50: 31.8 µM (inactive)
[33]
  GI50: 13.4 µM (inactive)
[34]
  GI50: 26.3 µM (inactive)
[35]
  GI50: 17.9 µM (inactive)
[36]
  GI50: 19.5 µM (inactive)
[37]
  GI50: 34 µM (inactive)
[38]
  GI50: 25.1 µM (inactive)
[39]
  GI50: 19.8 µM (inactive)
[40]
  GI50: 4.31 µM (inactive)
[41]
  GI50: 19.2 µM (inactive)
[42]
  GI50: 28.7 µM (inactive)
[43]
  GI50: 37.9 µM (inactive)
[44]
  GI50: 22.9 µM (inactive)
[45]
  GI50: 18.1 µM (inactive)
[46]
  GI50: 20.5 µM (inactive)
[47]
  GI50: 21.5 µM (inactive)
[48]
  GI50: 18.4 µM (inactive)
[49]
  GI50: 15.9 µM (inactive)
[50]
  GI50: 28.6 µM (inactive)
[51]
  GI50: 36.2 µM (inactive)
[52]
  GI50: 4.37 µM (inactive)
[53]
  GI50: 13 µM (inactive)
[54]
  GI50: 18.2 µM (inactive)
[55]
  GI50: 29.7 µM (inactive)
[56]
  GI50: 18.7 µM (inactive)
[57]
  GI50: 20.7 µM (inactive)
[58]
  GI50: 14.3 µM (inactive)
[59]
  GI50: 7.52 µM (inactive)
